≈ marks a conversion by molar mass, not a printed value.
What was measured:
Staphylococcus aureus [1] = test: Antibacterial activity against Staphylococcus aureus assessed as inhibition of bacterial growth; type: functional
Escherichia coli [2] = test: Antibacterial activity against Escherichia coli MTCC 443 assessed as diameter of zone of inhibition at 500 ug/ml by agar disk diffusion method; type: functional; settings: read-out: DIZ
Enterococcus faecalis [3] = test: Antibacterial activity against Enterococcus faecalis MTCC 439 assessed as diameter of zone of inhibition at 500 ug/ml by agar disk diffusion method; type: functional; settings: read-out: DIZ
Bacillus subtilis [4] = test: Antibacterial activity against Bacillus subtilis MTCC 736 assessed as diameter of zone of inhibition at 500 ug/ml by agar disk diffusion method; type: functional; settings: read-out: DIZ
Staphylococcus aureus [5] = test: Antibacterial activity against Staphylococcus aureus MTCC 902 assessed as diameter of zone of inhibition at 500 ug/ml by agar disk diffusion method; type: functional; settings: read-out: DIZ
Pseudomonas aeruginosa [6] = test: Antibacterial activity against Pseudomonas aeruginosa MTCC 2453 assessed as diameter of zone of inhibition at 500 ug/ml by agar disk diffusion method; type: functional; settings: read-out: DIZ
Salmonella typhi [7] = test: Antibacterial activity against Salmonella typhi assessed as diameter of zone of inhibition at 500 ug/ml by agar disk diffusion method; type: functional, Salmonella enterica subsp. enterica serovar Typhi; settings: Salmonella enterica, read-out: DIZ
Escherichia coli [8] = test: Antibacterial activity against Escherichia coli MTCC 443 assessed as inhibition of bacterial growth incubated overnight by serial dilution based spectrophotometer; type: functional
Enterococcus faecalis [9] = test: Antibacterial activity against Enterococcus faecalis MTCC 439 assessed as inhibition of bacterial growth incubated overnight by serial dilution based spectrophotometer; type: functional
Bacillus subtilis [10] = test: Antibacterial activity against Bacillus subtilis MTCC 736 assessed as inhibition of bacterial growth incubated overnight by serial dilution based spectrophotometer; type: functional
Staphylococcus aureus [11] = test: Antibacterial activity against Staphylococcus aureus MTCC 902 assessed as inhibition of bacterial growth incubated overnight by serial dilution based spectrophotometer; type: functional
Pseudomonas aeruginosa [12] = test: Antibacterial activity against Pseudomonas aeruginosa MTCC 2453 assessed as inhibition of bacterial growth incubated overnight by serial dilution based spectrophotometer; type: functional
Salmonella typhi [13] = test: Antibacterial activity against Salmonella typhi assessed as inhibition of bacterial growth incubated overnight by serial dilution based spectrophotometer; type: functional, Salmonella enterica subsp. enterica serovar Typhi; settings: Salmonella enterica
Escherichia coli [14] = test: Bactericidal activity against Escherichia coli MTCC 443 assessed as inhibition of bacterial growth incubated overnight; type: functional
Enterococcus faecalis [15] = test: Bactericidal activity against Enterococcus faecalis MTCC 439 assessed as inhibition of bacterial growth incubated overnight; type: functional
Bacillus subtilis [16] = test: Bactericidal activity against Bacillus subtilis MTCC 736 assessed as inhibition of bacterial growth incubated overnight; type: functional
Staphylococcus aureus [17] = test: Bactericidal activity against Staphylococcus aureus MTCC 902 assessed as inhibition of bacterial growth incubated overnight; type: functional
Pseudomonas aeruginosa [18] = test: Bactericidal activity against Pseudomonas aeruginosa MTCC 2453 assessed as inhibition of bacterial growth incubated overnight; type: functional
Salmonella typhi [19] = test: Bactericidal activity against Salmonella typhi assessed as inhibition of bacterial growth incubated overnight; type: functional, Salmonella enterica subsp. enterica serovar Typhi; settings: Salmonella enterica
Escherichia coli [20] = test: Ratio of MBC for antibacterial activity against Escherichia coli MTCC 443 to MIC for bactericidal activity against Escherichia coli MTCC 443; type: functional
Bacillus subtilis [21] = test: Ratio of MBC for antibacterial activity against Bacillus subtilis MTCC 736 to MIC for bactericidal activity against Bacillus subtilis MTCC 736; type: functional
Staphylococcus aureus [22] = test: Ratio of MBC for antibacterial activity against Staphylococcus aureus MTCC 902 to MIC for bactericidal activity against Staphylococcus aureus MTCC 902; type: functional

CCCCCCCCCCCCOC(=O)c1cc(OCCCCCCCCCCCC)nc2ccccc12
MIC (Staphylococcus aureus [1]): 6.25 µg/mL (≈ 11.9 µM)

Clc1ccc2c(NCC/N=C/c3ccco3)ccnc2c1
zone of inhibition at 500 µg/mL (Escherichia coli [2]): 9 mm
zone of inhibition at 500 µg/mL (Enterococcus faecalis [3]): 9 mm
zone of inhibition at 500 µg/mL (Bacillus subtilis [4]): 10 mm
zone of inhibition at 500 µg/mL (Staphylococcus aureus [5]): 10 mm
zone of inhibition at 500 µg/mL (Pseudomonas aeruginosa [6]): 9 mm
zone of inhibition at 500 µg/mL (Salmonella typhi [7]): 9 mm
MIC (Escherichia coli [8]): 512 µg/mL (≈ 1710 µM)
MIC (Enterococcus faecalis [9]): 512 µg/mL (≈ 1710 µM)
MIC (Bacillus subtilis [10]): 256 µg/mL (≈ 854 µM)
MIC (Staphylococcus aureus [11]): 256 µg/mL (≈ 854 µM)
MIC (Pseudomonas aeruginosa [12]): 512 µg/mL (≈ 1710 µM)
MIC (Salmonella typhi [13]): 512 µg/mL (≈ 1710 µM)
MBC (Escherichia coli [14]): 512 µg/mL (≈ 1710 µM)
MBC (Enterococcus faecalis [15]): > 512 µg/mL
MBC (Bacillus subtilis [16]): 256 µg/mL (≈ 854 µM)
MBC (Staphylococcus aureus [17]): 256 µg/mL (≈ 854 µM)
MBC (Pseudomonas aeruginosa [18]): > 512 µg/mL
MBC (Salmonella typhi [19]): > 512 µg/mL
Ratio (Escherichia coli [20]): 1
Ratio (Bacillus subtilis [21]): 1
Ratio (Staphylococcus aureus [22]): 1

— ChEMBL document CHEMBL6078713, “Synthesis and mechanistic studies of 4-aminoquinoline-Isatin molecular hybrids and Schiff's bases as promising antimicrobial agents” (Eur J Med Chem, 2025)
